Source: ChEMBL document CHEMBL1138971, “CA224, a non-planar analogue of fascaplysin, inhibits Cdk4 but not Cdk2 and arrests cells at G0/G1 inhibiting pRB phosphorylation” (Bioorg Med Chem Lett, 2006)
Active and inactive are the calls of the source. The rule behind the calls is not given here. Starred links: 1 amine or outer side, 2 acyl side, 3 side chain; linkers in the order of their positions; H or OH if unused. Positions of bridges follow the written chain, without caps; N, C: chain ends. Non-standard residues stand in square brackets, D forms with d. Residues, ends and D or L forms follow the SMILES beside them. Chains are numbered I, II in the order given. Actinocin(1to9) = Cc1c2oc3c(C)ccc(C(=O)[*:2])c3nc-2c(C(=O)[*:1])c(N)c1=O; NMeV = CN[C@H](C(=O)O)C(C)C; Sar = CNCC(=O)O

Columns and labels:
[1] = target: Cyclin-dependent kinase 4/cyclin D1 (Homo sapiens, UniProt P11802); experiment: Inhibition of Cdk4/Cyclin D1; type: protein-complex assay
[2] = target: Cyclin-dependent kinase 2/cyclin A (Homo sapiens, UniProt P24941); experiment: Inhibition of Cdk2/Cyclin A; type: protein-complex assay
Calf thymus DNA [3] = experiment: Ability to displace ethidium bromide from DNA; type: nucleic-acid assay
LS174T = experiment: Antiproliferative activity against LS174T cells; type: functional, cell-based; details: Homo sapiens
A549 = experiment: Antiproliferative activity against A549 cells; type: functional, cell-based; details: Homo sapiens
Calu-1 [4] = experiment: Antiproliferative activity against Calu1 cells; type: functional, cell-based; details: Homo sapiens
PC-3 = experiment: Antiproliferative activity against PC3 cells; type: functional, cell-based; details: Homo sapiens
[5] = target: Cyclin-dependent kinase 4 (Homo sapiens) (UniProt P11802); experiment: Inhibition of Cdk4-mediated phosphorylation of pRB in Calu1 cells at ser 795 residue after 24 hrs by Western blot analysis; type: functional, cell-based; details: Calu-1
[6] = target: Cyclin-dependent kinase 4 (Homo sapiens) (UniProt P11802); experiment: Inhibition of Cdk4-mediated phosphorylation of pRB in Calu1 cells at ser […] residue after 24 hrs by Western blot analysis; type: functional, cell-based; details: Calu-1
[7] = target: Cyclin-dependent kinase 4 (Homo sapiens) (UniProt P11802); experiment: Inhibition of Cdk4-mediated phosphorylation of pRB in Calu1 cells at ser 780 residue at 6.2 uM after 24 hrs by Western blot analysis; type: functional, cell-based; details: Calu-1
[8] = target: Cyclin-dependent kinase 4 (Homo sapiens) (UniProt P11802); experiment: Inhibition of Cdk4-mediated phosphorylation of pRB in Calu1 cells at ser 795 residue at 6.2 uM after 24 hrs by Western blot analysis; type: functional, cell-based; details: Calu-1
[9] = target: Cyclin-dependent kinase 4 (Homo sapiens) (UniProt P11802); experiment: Inhibition of Cdk4-mediated phosphorylation of pRB in Calu1 cells at ser […] residue at 6.2 uM after 24 hrs by Western blot analysis; type: functional, cell-based; details: Calu-1
Homo sapiens = organism: Homo sapiens; experiment: Selectivity for Cdk4/Cyclin D1 over Cdk2/Cyclin A
Calu-1 [10] = experiment: Ratio of cell cycle arrest in serum-starved Calu1 cells at G0/G1phase to S phase after 24 hrs by FACS analysis; type: functional, Homo sapiens
[11] = target: Cyclin-dependent kinase 4 (Homo sapiens) (UniProt P11802); experiment: Inhibition of Cdk4-mediated phosphorylation of pRB in Calu1 cells at ser 780 residue after 24 hrs by Western blot analysis; type: functional, cell-based; details: Calu-1
Calf thymus DNA [12] = experiment: Ability to displace ethidium bromide from DNA at 100 uM; type: nucleic-acid assay
[13] = target: T1, DNA topoisomerase 1 (Homo sapiens) (UniProt P11387); experiment: Inhibition of DNA relaxation catalysed by topoisomerase1 at 10 uM; type: functional
T1 sequence (whole entry): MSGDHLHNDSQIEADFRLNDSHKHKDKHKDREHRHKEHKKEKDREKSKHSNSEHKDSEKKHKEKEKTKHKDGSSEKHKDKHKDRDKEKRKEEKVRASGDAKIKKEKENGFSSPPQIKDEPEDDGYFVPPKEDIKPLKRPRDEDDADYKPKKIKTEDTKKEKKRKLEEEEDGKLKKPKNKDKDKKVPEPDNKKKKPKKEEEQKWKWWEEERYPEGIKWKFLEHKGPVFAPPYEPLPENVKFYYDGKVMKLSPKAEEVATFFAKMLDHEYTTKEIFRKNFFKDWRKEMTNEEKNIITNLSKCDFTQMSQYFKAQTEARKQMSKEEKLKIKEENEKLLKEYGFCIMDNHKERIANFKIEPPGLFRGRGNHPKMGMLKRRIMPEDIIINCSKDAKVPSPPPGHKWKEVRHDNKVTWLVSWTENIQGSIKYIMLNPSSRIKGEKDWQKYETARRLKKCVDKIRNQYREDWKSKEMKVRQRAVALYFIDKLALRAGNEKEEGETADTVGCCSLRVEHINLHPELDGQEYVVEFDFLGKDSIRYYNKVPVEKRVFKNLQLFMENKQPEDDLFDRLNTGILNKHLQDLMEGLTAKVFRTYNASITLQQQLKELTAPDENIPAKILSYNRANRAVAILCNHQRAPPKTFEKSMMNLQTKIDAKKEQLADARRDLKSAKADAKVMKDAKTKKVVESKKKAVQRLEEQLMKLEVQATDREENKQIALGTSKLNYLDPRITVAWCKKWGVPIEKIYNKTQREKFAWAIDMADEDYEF

[14] = target: T1, DNA topoisomerase 1 (Homo sapiens); experiment: Inhibition of DNA relaxation catalysed by topoisomerase1 at 100 uM; type: functional
Calu-1 [15] = experiment: Cell cycle arrest in serum-starved Calu1 cells by accumulation at G2/M phase after 24 hrs by FACS analysis; type: functional, Homo sapiens
Calu-1 [16] = experiment: Cell cycle arrest in serum-starved Calu1 cells by accumulation at S phase after 24 hrs by FACS analysis; type: functional, Homo sapiens
Calu-1 [17] = experiment: Cell cycle arrest in serum-starved Calu1 cells by accumulation at G0/G1 phase after 24 hrs by FACS analysis; type: functional, Homo sapiens

Sequence of Cyclin-dependent kinase 4/cyclin D1 (P11802 whole entry): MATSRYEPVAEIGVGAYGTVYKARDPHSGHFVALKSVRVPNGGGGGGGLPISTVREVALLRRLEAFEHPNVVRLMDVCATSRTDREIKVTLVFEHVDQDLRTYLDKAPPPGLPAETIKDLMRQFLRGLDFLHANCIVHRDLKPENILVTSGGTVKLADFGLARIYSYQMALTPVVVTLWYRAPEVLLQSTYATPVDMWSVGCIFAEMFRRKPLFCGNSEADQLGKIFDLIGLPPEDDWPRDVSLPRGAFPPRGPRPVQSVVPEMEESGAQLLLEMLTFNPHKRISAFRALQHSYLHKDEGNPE
Sequence of Cyclin-dependent kinase 4/cyclin D1 (P24385 whole entry, further chain): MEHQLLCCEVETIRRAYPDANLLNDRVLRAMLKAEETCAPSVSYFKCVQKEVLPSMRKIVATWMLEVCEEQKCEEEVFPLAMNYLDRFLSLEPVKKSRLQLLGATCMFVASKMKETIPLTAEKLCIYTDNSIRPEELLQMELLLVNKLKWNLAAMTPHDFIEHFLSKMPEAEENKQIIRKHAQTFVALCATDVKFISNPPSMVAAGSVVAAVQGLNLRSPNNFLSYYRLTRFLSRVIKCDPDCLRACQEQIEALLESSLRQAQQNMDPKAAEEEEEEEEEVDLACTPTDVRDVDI
Sequence of Cyclin-dependent kinase 4 (Homo sapiens) (P11802 whole entry): as the sequence (P11802 whole entry) above

Row | SMILES | IC50 [1] | IC50 [2] | Activity (Calf thymus DNA [3]) | IC50 (LS174T) | IC50 (A549) | IC50 (Calu-1 [4]) | IC50 (PC-3) | also measured
1 | CN(CCc1c[nH]c2ccccc12)C(=O)c1cccc(F)c1 | 88 µM | 765 µM | inactive | 97 µM | 106 µM | 136 µM | 98 µM | 
2 | CN(CCc1c[nH]c2ccccc12)C(=O)c1ccc(-c2ccccc2)cc1 | 6.2 µM | 521 µM | inactive | 3.5 µM | 3.5 µM | 11.5 µM | 6.2 µM | Activity [5]: Active; Activity [6]: Active; Activity [7]: Active; Activity [8]: Active; Activity [9]: Active; Selectivity ratio (Homo sapiens): 100; Ratio (Calu-1 [10]): 16; Activity [11]: Active; Activity (Calf thymus DNA [12]): < 5%; Activity [13]: inactive; Activity [14]: inactive; Activity (Calu-1 [15]): 30%; Activity (Calu-1 [16]): 4%; Activity (Calu-1 [17]): 64%
3 | CN(CCc1c[nH]c2ccccc12)C(=O)c1cccc(Cl)c1 | 109 µM | 1120 µM | inactive | 118 µM | 95 µM | 123 µM | 94 µM | 
4 | CN(CCc1c[nH]c2ccccc12)C(=O)c1ccccc1F | 103 µM | 1230 µM | inactive | 110 µM | 103 µM | 145 µM | 108 µM | 
5 | Cc1ccc(C(=O)N(C)CCc2c[nH]c3ccccc23)cc1 | 63 µM | 790 µM | inactive | 82 µM | 92 µM | 103 µM | 55 µM | 
6 | Cc1cccc(C(=O)N(C)CCc2c[nH]c3ccccc23)c1 | 78 µM | 830 µM | inactive | 88 µM | 96 µM | 136 µM | 81 µM | 
7 | CN(CCc1c[nH]c2ccccc12)C(=O)c1ccc(Cl)cc1 | 38 µM | 731 µM | inactive | 42 µM | 27 µM | 78 µM | 47 µM | 
8 | Cc1ccccc1C(=O)N(C)CCc1c[nH]c2ccccc12 | 113 µM | 1130 µM | inactive | 105 µM | 110 µM | 141 µM | 92 µM | 
9 | CN(CCc1c[nH]c2ccccc12)C(=O)c1ccccc1Br | 95 µM | 584 µM | inactive | 76 µM | 95 µM | 122 µM | 59 µM | 
10 | CN(CCc1c[nH]c2ccccc12)C(=O)c1cccc(Br)c1 | 74 µM | 635 µM | inactive | 89 µM | 91 µM | 144 µM | 66 µM | 
11 | COc1ccccc1C(=O)N(C)CCc1c[nH]c2ccccc12 | 79 µM | 849 µM | inactive | 106 µM | 103 µM | 146 µM | 89 µM | 
12 | CN(CCc1c[nH]c2ccccc12)C(=O)c1ccc(Br)cc1 | 37 µM | 580 µM | inactive | 52 µM | 55 µM | 64 µM | 36 µM | 
13 | Cc1c2oc3c(C)ccc(C(=O)N[C@@H]4C(=O)N[C@H](C(C)C)C(=O)N5CCC[C@H]5C(=O)N(C)CC(=O)N(C)[C@@H](C(C)C)C(=O)O[C@@H]4C)c3nc-2c(C(=O)N[C@@H]2C(=O)N[C@H](C(C)C)C(=O)N3CCC[C@H]3C(=O)N(C)CC(=O)N(C)[C@@H](C(C)C)C(=O)O[C@@H]2C)c(N)c1=O [DACTINOMYCIN] (I: T[dV]P[Sar][NMeV] / II: T[dV]P[Sar][NMeV]; ester I:1-I:C, II:1-II:C; linker I:N-II:N via Actinocin(1to9)) |  |  |  |  |  |  |  | IC50 (Calf thymus DNA [3]): 35 µM
14 | CN(CCc1c[nH]c2ccccc12)C(=O)c1ccc(C(C)(C)C)cc1 | 49 µM | 658 µM | inactive | 18 µM | 12 µM | 52 µM | 15 µM | 
15 | COc1cccc(C(=O)N(C)CCc2c[nH]c3ccccc23)c1 | 81 µM | 938 µM | inactive | 109 µM | 95 µM | 139 µM | 85 µM | 
16 | CN(CCc1c[nH]c2ccccc12)C(=O)c1ccccc1 | 88 µM | 1520 µM | inactive | 83 µM | 95 µM | 104 µM | 86 µM | 
17 | CN(CCc1c[nH]c2ccccc12)C(=O)c1ccc(F)cc1 | 59 µM | 850 µM | inactive | 87 µM | 102 µM | 141 µM | 94 µM | 
18 | CN(CCc1c[nH]c2ccccc12)C(=O)c1ccccc1Cl | 46 µM | 784 µM | inactive | 99 µM | 96 µM | 147 µM | 92 µM | 
